Measured values published in patent publication US10058097B2, “Methods to increase corn productivity” (Valent BioSciences Corporation, priority 2016, dated 2018).

What was measured:
Type in all cases: in vivo
greenhouse-grown maize = assay: Greenhouse study: effect of GA3 dose +/- GB on growth, 7 and 14 days; conditions: without or with GB 10000 mg/liter
Method: In several of the following examples, corn was grown in greenhouse conditions, which are defined as follows. Seeds of a commercial hybrid variety were sown in Pro-Mix® BX (Pro-Mix is a registered trademark of Premier Horticulture Ltd.) with the addition of Osmocote (14-14-14) and gypsum in three-liter pots. Greenhouses were kept at 25±3° C. under a 16:8 hour photoperiod, with illumination at canopy level of ˜250 μmoles m^−2s^−1. Corn was typically fertigated with Peters 21-5-20+micronutrients, calcium ammonium nitrate and magnesium sulfate. Typical growth rates for corn under these conditions ranged from 4-5 cm/day.
In most greenhouse studies, spray applications were made. These applications were made in a track sprayer outfitted with a 4001E Teejet® nozzle (Teejet is available from and a registered trademark of Spraying Systems Co., Glendale Heights, Ill., USA) and applied at 40 psi. Although application volumes did vary between some studies, generally, 30 gallons/acre of spray solution was applied. Following spray applications, plants were returned to the greenhouse. Typically, experiments were blocked according to plant size, and a randomized complete block design (RCB) was used.
(§1) Synergy was determined using the following formula, in which a synergy factor is calculated by the Abbott method: % Cexp=A+B−(AB/100), here % Cexp is the expected efficacy and “in which A and B are the increase in growth (or resistance to stress) levels given by the single [plant growth regulators]. If the ratio between the experimentally observed efficacy of the mixture Cobs and the expected efficacy of the mixture is greater than 1, synergistic interactions are present in the mixture” (Gisi, Synergistic Interaction of Fungicides in Mixtures, The American Phytopathological Society, 86:11, 1273-1279, 1996).
In a separate study, the effect of one rate of GB on various doses of GA3 was studied.

corn = assay: Nutrient stress greenhouse study, GA3 and/or GB, 7 days; conditions: GA3 120 mg/liter, GB 10,000 mg/liter; for Change in Height: n = 7 plants
Method: as §1
During rainy periods in March-May in the Midwestern United States, nitrogen fertilizer for corn is often limited due to a combination of leaching and mineralization. GB included with GA3 can help overcome the slow growth caused by low nutrients. In a greenhouse study in Long Grove, Ill. we evaluated the effect of GA3, GB and the combination under ‘normal nutrient’ and limited nutrient conditions.

corn plants = assay: Chilling stress study (10° C. for five days) after spray with GA3 or GB; conditions: chilling stress at 10° C. for five days; GA3 120 mg/liter, GB 3000 mg/liter; n = 7 plants
Method: In stress studies, plants were subjected to various stresses. In cold stress studies, after spraying, plants were grown in the greenhouse for an additional 48 hours before being measured and moved to a CMP6050 CONVIRON® chamber kept at 10° C. (Conviron is a registered trademark of Controlled Environments Limited Corporation). Illumination was at ˜225 μMoles, and light:dark conditions were on a 12:12 hour photoperiod. After 120 hours of chilling, plants were removed from the cold, measured, and returned to the greenhouse for 48 hours prior to harvest.
as §1
In a greenhouse and growth room study conducted in Long Grove, Ill., corn plants of a commonly grown hybrid were subjected to the following stress regimen: at two days post-foliar application, plants were moved into a controlled environment chamber, where the temperature was maintained at 10° C. with a 12:12 hour photoperiod for five days. At the end of the chilling period, the corn was moved back to the greenhouse for two days before destructive harvest.

potted corn plants = assay: Chronic drought stress greenhouse study, potted corn, 14 days; conditions: 20 Percent Volumetric Water Content, 120 mg/liter GA3, 3000 mg/liter GB, n = 5
Method: In drought stress studies, corn plants were sprayed at the V4 stage with solutions containing a non-ionic surfactant (0.25%, v/v) at 30 gallons of spray solution/acre and growth was determined by change in height from time of treatment or fresh and dry shoot weight measurements 14 days later.
In greenhouse drought stress studies, corn plants were treated and subsequently watered with an automated irrigation system that maintained the soil moisture in the pots at 45% or 20% volumetric water content (“VWC”). Plants set to 20% after treatment took about 4 days without the automated system adding water to those pots to reach 20% VWC and then the automated system added water as needed to maintain 20% VWC. Total soil moisture capacity was 45% VWC and 20% VWC represented drought stress conditions. This would be considered chronic stress, as a lower level of VWC was maintained throughout the experiment after treatment.

**Q.** For `C=C1C[C@]23C[C@@]1(O)CC[C@H]2[C@@]12C=C[C@H](O)[C@@](C)(C(=O)O1)[C@H]2[C@@H]3C(=O)O` [GA3, gibberellic acid], which “Growth Rate, 0-7 day(s)” value (greenhouse-grown maize; GA3 30 mg/liter) is on record?
**A.** 3.17 cm/day

**Q.** What about the “Growth Rate, 0-14 day(s)” value (greenhouse-grown maize; GA3 30 mg/liter) of the same molecule?
**A.** 6.82 cm/day

**Q.** And the “Plant Growth over 7 days” value (greenhouse-grown maize; GA3 30 mg/liter)?
**A.** 22.2 cm

**Q.** And the “Plant Growth over 14 days” value (greenhouse-grown maize; GA3 30 mg/liter)?
**A.** 47.8 cm

**Q.** What about the “Growth Rate, 0-7 day(s)” value (greenhouse-grown maize; GA3 60 mg/liter) of the same molecule?
**A.** 3.57 cm/day

**Q.** And the “Growth Rate, 0-14 day(s)” value (greenhouse-grown maize; GA3 60 mg/liter)?
**A.** 7.24 cm/day

**Q.** What about the “Plant Growth over 7 days” value (greenhouse-grown maize; GA3 60 mg/liter) of the same molecule?
**A.** 25.0 cm

**Q.** And the “Plant Growth over 14 days” value (greenhouse-grown maize; GA3 60 mg/liter)?
**A.** 50.7 cm

**Q.** And the “Growth Rate, 0-7 day(s)” value (greenhouse-grown maize; GA3 120 mg/liter)?
**A.** 3.91 cm/day

**Q.** What about the “Growth Rate, 0-14 day(s)” value (greenhouse-grown maize; GA3 120 mg/liter) of the same molecule?
**A.** 7.35 cm/day

**Q.** And the “Plant Growth over 7 days” value (greenhouse-grown maize; GA3 120 mg/liter)?
**A.** 27.3 cm

**Q.** And the “Plant Growth over 14 days” value (greenhouse-grown maize; GA3 120 mg/liter)?
**A.** 51.4 cm

**Q.** And the “Growth Rate, 0-7 day(s)” value (greenhouse-grown maize; GA3 240 mg/liter)?
**A.** 4.25 cm/day

**Q.** And the “Growth Rate, 0-14 day(s)” value (greenhouse-grown maize; GA3 240 mg/liter)?
**A.** 7.94 cm/day

**Q.** And the “Plant Growth over 7 days” value (greenhouse-grown maize; GA3 240 mg/liter)?
**A.** 29.8 cm

**Q.** And the “Plant Growth over 14 days” value (greenhouse-grown maize; GA3 240 mg/liter)?
**A.** 55.6 cm

**Q.** What about the “Dry Weight” value (corn; Low Nutrients) of the same molecule?
**A.** 2.50 g

**Q.** And the “Leaf Area (L1-L6)” value (corn; Low Nutrients)?
**A.** 588.66 cm^2

**Q.** And the “Change in Height” value (corn; Low Nutrients)?
**A.** 30.34 cm

**Q.** And the “Dry Weight” value (corn; Normal Nutrients)?
**A.** 2.86 g

**Q.** What about the “Leaf Area (L1-L6)” value (corn; Normal Nutrients) of the same molecule?
**A.** 629.45 cm^2

**Q.** And the “Change in Height” value (corn; Normal Nutrients)?
**A.** 38.83 cm

**Q.** What about the “Growth Rate” value (corn plants) of the same molecule?
**A.** 2.38 cm/day

**Q.** What about the “Growth over 9 days” value (corn plants) of the same molecule?
**A.** 21.43 cm

**Q.** And the “Leaf Area of L1-L5” value (corn plants)?
**A.** 324.24 cm^2

**Q.** And the “Percent Dry Weight of Drought Stressed Control” value (potted corn plants)?
**A.** 103.32%

**Q.** And the “Percent Fresh Weight of Drought Stressed Control” value (potted corn plants)?
**A.** 106.11%
